Data taken from publication PMC5392334, “Discovery and characterization of a novel irreversible EGFR mutants selective and potent kinase inhibitor CHMFL-EGFR-26 with a distinct binding mode” (Oncotarget, 2017).

Columns and labels:
Type in all cases: binding
[1] = molecular target: T1, ABL1(E255K)-phosphorylated (Homo sapiens, UniProt P00519, E255K); experiment: KinomeScan; conditions: read-out: % control
T1 construct: purchased DiscoveRx KINOMEscan

ACVR2B = molecular target: T2, ACVR2B (Homo sapiens, UniProt Q13705); experiment: KinomeScan; conditions: read-out: % control
T2 construct: purchased DiscoveRx KINOMEscan
T2 sequence (Q13705 19-512): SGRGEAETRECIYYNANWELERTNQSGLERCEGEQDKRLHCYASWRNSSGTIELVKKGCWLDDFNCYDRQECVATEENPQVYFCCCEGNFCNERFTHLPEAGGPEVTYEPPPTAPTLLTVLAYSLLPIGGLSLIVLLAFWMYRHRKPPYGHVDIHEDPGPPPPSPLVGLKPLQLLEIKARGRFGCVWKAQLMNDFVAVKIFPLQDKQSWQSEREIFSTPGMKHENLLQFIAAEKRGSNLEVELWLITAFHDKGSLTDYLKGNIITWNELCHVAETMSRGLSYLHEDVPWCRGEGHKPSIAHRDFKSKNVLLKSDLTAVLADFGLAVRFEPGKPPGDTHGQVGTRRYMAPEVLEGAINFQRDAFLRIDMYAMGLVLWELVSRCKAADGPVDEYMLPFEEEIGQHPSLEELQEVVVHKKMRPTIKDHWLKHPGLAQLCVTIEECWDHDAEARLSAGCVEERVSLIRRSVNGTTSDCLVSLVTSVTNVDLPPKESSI

CDK4 = molecular target: T3, CDK4 (Homo sapiens, UniProt P11802); experiment: KinomeScan; conditions: read-out: % control
T3 construct: purchased DiscoveRx KINOMEscan
T3 sequence (P11802 whole entry): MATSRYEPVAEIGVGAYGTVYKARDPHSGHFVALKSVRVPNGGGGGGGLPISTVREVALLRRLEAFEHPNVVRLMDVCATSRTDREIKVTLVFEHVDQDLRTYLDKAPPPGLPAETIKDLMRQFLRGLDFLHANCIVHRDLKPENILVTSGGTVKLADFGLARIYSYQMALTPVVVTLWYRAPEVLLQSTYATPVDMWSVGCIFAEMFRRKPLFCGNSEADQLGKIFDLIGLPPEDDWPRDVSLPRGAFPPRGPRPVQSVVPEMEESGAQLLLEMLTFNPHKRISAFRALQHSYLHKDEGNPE

CDK4-cyclinD1 = molecular target: T4, CDK4-cyclinD1 (Homo sapiens, UniProt P11802); experiment: KinomeScan; conditions: read-out: % control
T4 construct: purchased DiscoveRx KINOMEscan
T4 sequence (P11802 whole entry): as above
T4 sequence (P24385 whole entry partner): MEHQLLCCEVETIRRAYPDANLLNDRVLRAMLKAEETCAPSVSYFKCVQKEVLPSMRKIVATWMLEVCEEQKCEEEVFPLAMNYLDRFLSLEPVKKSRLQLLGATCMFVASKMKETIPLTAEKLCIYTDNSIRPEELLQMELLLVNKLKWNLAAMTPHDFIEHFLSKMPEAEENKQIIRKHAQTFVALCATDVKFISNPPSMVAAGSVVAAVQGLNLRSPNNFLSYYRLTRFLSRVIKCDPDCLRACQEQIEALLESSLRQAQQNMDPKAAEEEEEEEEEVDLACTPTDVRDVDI

CDK7 = molecular target: T5, CDK7 (Homo sapiens, UniProt P50613); experiment: KinomeScan; conditions: read-out: % control
T5 construct: purchased DiscoveRx KINOMEscan
T5 sequence (P50613 whole entry): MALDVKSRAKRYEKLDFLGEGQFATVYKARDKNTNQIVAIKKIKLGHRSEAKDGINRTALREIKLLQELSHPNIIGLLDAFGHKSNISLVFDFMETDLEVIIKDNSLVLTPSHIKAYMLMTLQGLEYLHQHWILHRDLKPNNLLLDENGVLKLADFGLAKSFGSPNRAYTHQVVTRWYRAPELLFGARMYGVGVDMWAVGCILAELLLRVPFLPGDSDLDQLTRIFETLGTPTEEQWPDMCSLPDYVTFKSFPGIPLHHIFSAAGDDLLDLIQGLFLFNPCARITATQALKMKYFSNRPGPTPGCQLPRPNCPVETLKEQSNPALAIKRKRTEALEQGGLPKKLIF

CSNK1A1L = molecular target: T6, CSNK1A1L (Homo sapiens, UniProt Q8N752); experiment: KinomeScan; conditions: read-out: % control
T6 construct: purchased DiscoveRx KINOMEscan

EGFR = molecular target: T7, EGFR (Homo sapiens, UniProt P00533); experiment: KinomeScan; conditions: read-out: % control
T7 construct: purchased DiscoveRx KINOMEscan

EPHA2 = molecular target: T8, EPHA2 (Homo sapiens, UniProt P29317); experiment: KinomeScan; conditions: read-out: % control
T8 construct: purchased DiscoveRx KINOMEscan

ERK2 = molecular target: T9, ERK2 (Homo sapiens, UniProt P28482); experiment: KinomeScan; conditions: read-out: % control
T9 construct: purchased DiscoveRx KINOMEscan
T9 sequence (P28482 whole entry): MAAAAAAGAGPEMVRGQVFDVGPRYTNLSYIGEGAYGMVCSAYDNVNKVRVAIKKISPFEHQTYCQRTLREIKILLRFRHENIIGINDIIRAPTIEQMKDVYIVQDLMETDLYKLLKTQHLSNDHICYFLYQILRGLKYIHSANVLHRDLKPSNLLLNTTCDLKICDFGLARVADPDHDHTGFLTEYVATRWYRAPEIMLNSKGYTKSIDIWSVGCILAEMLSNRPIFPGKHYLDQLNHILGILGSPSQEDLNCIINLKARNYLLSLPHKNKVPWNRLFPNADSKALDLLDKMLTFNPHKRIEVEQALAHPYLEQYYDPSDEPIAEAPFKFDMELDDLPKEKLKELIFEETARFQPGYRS

FGFR4 = molecular target: T10, FGFR4 (Homo sapiens, UniProt P22455); experiment: KinomeScan; conditions: read-out: % control
T10 construct: purchased DiscoveRx KINOMEscan

GAK = molecular target: T11, GAK (Homo sapiens, UniProt O14976); experiment: KinomeScan; conditions: read-out: % control
T11 construct: purchased DiscoveRx KINOMEscan

GRK3 = molecular target: T12, GRK3 (Homo sapiens, UniProt P35626); experiment: KinomeScan; conditions: read-out: % control
T12 construct: purchased DiscoveRx KINOMEscan

HASPIN = molecular target: T13, HASPIN (Homo sapiens, UniProt Q8TF76); experiment: KinomeScan; conditions: read-out: % control
T13 construct: purchased DiscoveRx KINOMEscan

[2] = molecular target: T14, JAK1(JH2domain-pseudokinase) (Homo sapiens, UniProt P23458); experiment: KinomeScan; conditions: read-out: % control
T14 construct: JAK1(JH2domain-pseudokinase); purchased DiscoveRx KINOMEscan
T14 sequence (P23458 583-855 limits assumed): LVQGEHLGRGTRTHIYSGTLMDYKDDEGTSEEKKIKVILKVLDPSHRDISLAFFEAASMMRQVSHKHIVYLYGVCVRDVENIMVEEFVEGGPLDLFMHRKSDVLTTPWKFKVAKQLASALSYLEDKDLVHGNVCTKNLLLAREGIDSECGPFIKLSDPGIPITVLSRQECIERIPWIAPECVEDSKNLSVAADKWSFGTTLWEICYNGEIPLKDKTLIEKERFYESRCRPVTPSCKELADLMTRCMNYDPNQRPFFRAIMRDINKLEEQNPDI

JNK3 = molecular target: T15, JNK3 (Homo sapiens, UniProt P53779); experiment: KinomeScan; conditions: read-out: % control
T15 construct: purchased DiscoveRx KINOMEscan

KIT(D816V) = molecular target: T16, KIT(D816V) (Homo sapiens, UniProt P10721, D816V); experiment: KinomeScan; conditions: read-out: % control
T16 construct: purchased DiscoveRx KINOMEscan
T16 sequence (P10721 26-976 D816V): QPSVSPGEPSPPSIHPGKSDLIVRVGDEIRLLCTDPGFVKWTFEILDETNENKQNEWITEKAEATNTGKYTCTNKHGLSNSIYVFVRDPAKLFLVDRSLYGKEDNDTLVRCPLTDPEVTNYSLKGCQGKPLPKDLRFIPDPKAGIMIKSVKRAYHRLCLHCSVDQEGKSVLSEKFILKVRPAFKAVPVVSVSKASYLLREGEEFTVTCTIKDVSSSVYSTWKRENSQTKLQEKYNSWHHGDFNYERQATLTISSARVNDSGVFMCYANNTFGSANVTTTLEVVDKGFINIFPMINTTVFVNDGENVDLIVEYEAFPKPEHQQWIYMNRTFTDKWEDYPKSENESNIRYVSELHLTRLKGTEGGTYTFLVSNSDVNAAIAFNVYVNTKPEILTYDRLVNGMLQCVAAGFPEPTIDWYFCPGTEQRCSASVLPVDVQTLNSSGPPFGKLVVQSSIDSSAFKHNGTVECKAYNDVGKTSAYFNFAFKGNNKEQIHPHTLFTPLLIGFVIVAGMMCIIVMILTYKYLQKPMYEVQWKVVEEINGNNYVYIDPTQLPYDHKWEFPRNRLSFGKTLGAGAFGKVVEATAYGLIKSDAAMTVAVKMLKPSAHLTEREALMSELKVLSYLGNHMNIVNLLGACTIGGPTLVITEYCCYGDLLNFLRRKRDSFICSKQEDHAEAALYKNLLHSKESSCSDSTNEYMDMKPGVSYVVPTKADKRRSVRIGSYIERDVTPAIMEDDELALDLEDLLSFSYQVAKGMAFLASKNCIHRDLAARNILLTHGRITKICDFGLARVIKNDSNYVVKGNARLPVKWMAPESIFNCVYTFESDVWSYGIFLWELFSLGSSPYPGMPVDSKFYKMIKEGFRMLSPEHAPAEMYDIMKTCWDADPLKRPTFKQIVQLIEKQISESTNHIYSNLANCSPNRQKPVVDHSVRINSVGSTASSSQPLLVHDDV

KIT(V559D,V654A) = molecular target: T17, KIT(V559D,V654A) (Homo sapiens, UniProt P10721, V559D/V654A); experiment: KinomeScan; conditions: read-out: % control
T17 construct: purchased DiscoveRx KINOMEscan
T17 sequence (P10721 26-976 V559D/V654A): as the sequence (P10721 26-976 D816V) above, with V534D, V629A, V791D counted along it

MAP3K3 = molecular target: T18, MAP3K3 (Homo sapiens, UniProt Q99759); experiment: KinomeScan; conditions: read-out: % control
T18 construct: purchased DiscoveRx KINOMEscan

MAPKAPK2 = molecular target: T19, MAPKAPK2 (Homo sapiens, UniProt P49137); experiment: KinomeScan; conditions: read-out: % control
T19 construct: purchased DiscoveRx KINOMEscan

MEK2 = molecular target: T20, MEK2 (Homo sapiens, UniProt P36507); experiment: KinomeScan; conditions: read-out: % control
T20 construct: purchased DiscoveRx KINOMEscan

MYLK = molecular target: T21, MYLK (Homo sapiens, UniProt Q15746); experiment: KinomeScan; conditions: read-out: % control
T21 construct: purchased DiscoveRx KINOMEscan

NEK11 = molecular target: T22, NEK11 (Homo sapiens, UniProt Q8NG66); experiment: KinomeScan; conditions: read-out: % control
T22 construct: purchased DiscoveRx KINOMEscan

NEK6 = molecular target: T23, NEK6 (Homo sapiens, UniProt Q9HC98); experiment: KinomeScan; conditions: read-out: % control
T23 construct: purchased DiscoveRx KINOMEscan

NLK = molecular target: T24, NLK (Homo sapiens, UniProt Q9UBE8); experiment: KinomeScan; conditions: read-out: % control
T24 construct: purchased DiscoveRx KINOMEscan

PCTK1 = molecular target: T25, PCTK1 (Homo sapiens, UniProt Q00536); experiment: KinomeScan; conditions: read-out: % control
T25 construct: purchased DiscoveRx KINOMEscan

PFCDPK1(P.falciparum) = molecular target: T26, PFCDPK1(P.falciparum) (Plasmodium falciparum, UniProt P62344); experiment: KinomeScan; conditions: read-out: % control
T26 construct: purchased DiscoveRx KINOMEscan

PIM1 = molecular target: T27, PIM1 (Homo sapiens, UniProt P11309); experiment: KinomeScan; conditions: read-out: % control
T27 construct: purchased DiscoveRx KINOMEscan

PLK1 = molecular target: T28, PLK1 (Homo sapiens, UniProt P53350); experiment: KinomeScan; conditions: read-out: % control
T28 construct: purchased DiscoveRx KINOMEscan

PRKX = molecular target: T29, PRKX (Homo sapiens, UniProt P51817); experiment: KinomeScan; conditions: read-out: % control
T29 construct: purchased DiscoveRx KINOMEscan

RAF1 = molecular target: T30, RAF1 (Homo sapiens, UniProt P04049); experiment: KinomeScan; conditions: read-out: % control
T30 construct: purchased DiscoveRx KINOMEscan

RIOK1 = molecular target: T31, RIOK1 (Homo sapiens, UniProt Q9BRS2); experiment: KinomeScan; conditions: read-out: % control
T31 construct: purchased DiscoveRx KINOMEscan

RIPK5 = molecular target: T32, RIPK5 (Homo sapiens, UniProt Q6XUX3); experiment: KinomeScan; conditions: read-out: % control
T32 construct: purchased DiscoveRx KINOMEscan
T32 sequence (Q6XUX3 whole entry): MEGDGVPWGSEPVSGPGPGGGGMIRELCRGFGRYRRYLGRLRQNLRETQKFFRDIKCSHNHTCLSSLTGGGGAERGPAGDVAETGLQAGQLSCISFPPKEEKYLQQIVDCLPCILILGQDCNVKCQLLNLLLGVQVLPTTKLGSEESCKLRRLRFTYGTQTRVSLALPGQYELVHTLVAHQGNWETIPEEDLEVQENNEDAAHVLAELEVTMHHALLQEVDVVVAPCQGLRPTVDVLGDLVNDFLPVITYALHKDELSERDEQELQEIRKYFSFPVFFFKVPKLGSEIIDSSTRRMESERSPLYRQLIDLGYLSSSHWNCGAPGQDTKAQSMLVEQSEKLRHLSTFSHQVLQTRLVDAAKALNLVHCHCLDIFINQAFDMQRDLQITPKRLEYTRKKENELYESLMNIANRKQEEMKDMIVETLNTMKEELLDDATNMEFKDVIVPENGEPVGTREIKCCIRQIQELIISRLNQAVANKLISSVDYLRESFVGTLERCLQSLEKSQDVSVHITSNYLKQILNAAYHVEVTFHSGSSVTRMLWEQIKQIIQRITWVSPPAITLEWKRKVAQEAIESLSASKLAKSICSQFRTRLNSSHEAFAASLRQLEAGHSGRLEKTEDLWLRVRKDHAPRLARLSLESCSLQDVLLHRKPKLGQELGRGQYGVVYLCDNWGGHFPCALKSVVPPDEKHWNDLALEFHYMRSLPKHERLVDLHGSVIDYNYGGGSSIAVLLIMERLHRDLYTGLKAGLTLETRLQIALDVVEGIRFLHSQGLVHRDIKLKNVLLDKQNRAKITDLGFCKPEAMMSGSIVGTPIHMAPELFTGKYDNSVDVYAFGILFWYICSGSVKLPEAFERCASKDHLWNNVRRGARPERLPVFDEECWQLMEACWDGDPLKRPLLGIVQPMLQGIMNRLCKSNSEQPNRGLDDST

ROCK2 = molecular target: T33, ROCK2 (Homo sapiens, UniProt O75116); experiment: KinomeScan; conditions: read-out: % control
T33 construct: purchased DiscoveRx KINOMEscan

SGK3 = molecular target: T34, SGK3 (Homo sapiens, UniProt Q96BR1); experiment: KinomeScan; conditions: read-out: % control
T34 construct: purchased DiscoveRx KINOMEscan

STK39 = molecular target: T35, STK39 (Homo sapiens, UniProt Q9UEW8); experiment: KinomeScan; conditions: read-out: % control
T35 construct: purchased DiscoveRx KINOMEscan

SYK = molecular target: T36, SYK (Homo sapiens, UniProt P43405); experiment: KinomeScan; conditions: read-out: % control
T36 construct: purchased DiscoveRx KINOMEscan

TLK1 = molecular target: T37, TLK1 (Homo sapiens, UniProt Q9UKI8); experiment: KinomeScan; conditions: read-out: % control
T37 construct: purchased DiscoveRx KINOMEscan
T37 sequence (Q9UKI8 whole entry): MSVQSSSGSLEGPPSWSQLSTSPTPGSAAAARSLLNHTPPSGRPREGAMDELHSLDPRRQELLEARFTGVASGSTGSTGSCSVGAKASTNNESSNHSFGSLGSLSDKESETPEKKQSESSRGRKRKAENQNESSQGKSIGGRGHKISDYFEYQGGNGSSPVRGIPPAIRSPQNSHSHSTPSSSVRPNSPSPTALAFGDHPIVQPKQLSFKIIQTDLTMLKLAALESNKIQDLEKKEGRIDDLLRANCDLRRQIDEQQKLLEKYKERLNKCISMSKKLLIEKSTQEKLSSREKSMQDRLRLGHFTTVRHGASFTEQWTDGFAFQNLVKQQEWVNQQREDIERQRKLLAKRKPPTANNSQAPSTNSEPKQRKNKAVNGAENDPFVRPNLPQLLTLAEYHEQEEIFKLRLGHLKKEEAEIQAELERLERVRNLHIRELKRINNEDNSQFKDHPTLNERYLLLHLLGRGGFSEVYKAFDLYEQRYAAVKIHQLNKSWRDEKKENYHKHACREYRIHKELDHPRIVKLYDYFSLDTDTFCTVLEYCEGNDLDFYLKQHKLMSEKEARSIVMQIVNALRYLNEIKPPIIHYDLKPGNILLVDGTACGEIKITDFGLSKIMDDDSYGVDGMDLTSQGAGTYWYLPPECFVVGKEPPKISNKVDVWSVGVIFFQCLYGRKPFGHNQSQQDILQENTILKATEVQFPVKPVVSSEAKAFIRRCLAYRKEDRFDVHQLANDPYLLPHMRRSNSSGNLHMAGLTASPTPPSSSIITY

TTK = molecular target: T38, TTK (Homo sapiens, UniProt P33981); experiment: KinomeScan; conditions: read-out: % control
T38 construct: purchased DiscoveRx KINOMEscan

YSK1 = molecular target: T39, YSK1 (Homo sapiens, UniProt O00506); experiment: KinomeScan; conditions: read-out: % control
T39 construct: purchased DiscoveRx KINOMEscan

468 kinases/mutants = experiment: KinomeScan selectivity profile (panel); conditions: 1μM
From the text: In order to better understand CHMFL-EGFR-26's selectivity, we then tested it in DiscoveRx's KinomeScan™ assay. […] Given the fact that KinomeScan™ is a binding assay and sometimes cannot truly reflect the compound inhibitory activity, we then used Invitrogen SelectScreen® assay to test these potential off-targets (Supplementary Table 2). […] This was not surprising because EGFR, JAK3, HER2, HER4 and TEC family kinases (BTK, BLK and BMX) all share a similar cysteine residue at the identical position analogous to Cys 797 in EGFR in the hinge binding area.

C=CC(=O)N1CCC[C@@H](n2nc(-c3ccc(OCc4cccc(C)n4)c(Cl)c3)c3c(N)ncnc32)C1 [CHMFL-EGFR-26]
remaining binding at 1 µM [1]: 98% | remaining binding at 1 µM (ACVR2B): 85% | remaining binding at 1 µM (CDK4): 100% | remaining binding at 1 µM (CDK4-cyclinD1): 100% | remaining binding at 1 µM (CDK7): 100% | remaining binding at 1 µM (CSNK1A1L): 91% | remaining binding at 1 µM (EGFR): 0.8% | remaining binding at 1 µM (EPHA2): 100% | remaining binding at 1 µM (ERK2): 94% | remaining binding at 1 µM (FGFR4): 100% | remaining binding at 1 µM (GAK): 72% | remaining binding at 1 µM (GRK3): 100% | remaining binding at 1 µM (HASPIN): 100% | remaining binding at 1 µM [2]: 84% | remaining binding at 1 µM (JNK3): 86% | remaining binding at 1 µM (KIT(D816V)): 100% | remaining binding at 1 µM (KIT(V559D,V654A)): 89% | remaining binding at 1 µM (MAP3K3): 67% | remaining binding at 1 µM (MAPKAPK2): 89% | remaining binding at 1 µM (MEK2): 1.1% | remaining binding at 1 µM (MYLK): 100% | remaining binding at 1 µM (NEK11): 100% | remaining binding at 1 µM (NEK6): 100% | remaining binding at 1 µM (NLK): 70% | remaining binding at 1 µM (PCTK1): 100% | remaining binding at 1 µM (PFCDPK1(P.falciparum)): 54% | remaining binding at 1 µM (PIM1): 97% | remaining binding at 1 µM (PLK1): 100% | remaining binding at 1 µM (PRKX): 81% | remaining binding at 1 µM (RAF1): 97% | remaining binding at 1 µM (RIOK1): 90% | remaining binding at 1 µM (RIPK5): 13% | remaining binding at 1 µM (ROCK2): 100% | remaining binding at 1 µM (SGK3): 83% | remaining binding at 1 µM (STK39): 92% | remaining binding at 1 µM (SYK): 94% | remaining binding at 1 µM (TLK1): 84% | remaining binding at 1 µM (TTK): 95% | remaining binding at 1 µM (YSK1): 20% | S score (1) (468 kinases/mutants): 0.02
